Measurements: BindingDB's records for doi:10.7270/Q2PR7TDC (Burnham Center For Chemical Genomics, 2010)

Experiment: TNFa-triggered NF-kB activation inhibitors, SAR follow-up, cell-based, revised (AID 2337)

| SMILES | IC50 |
| --- | --- |
| Cc1cc(SCC(=O)OCC(=O)C(C#N)c2nc3ccccc3[nH]2)c(C)cc1Br (stereo not drawn) | > 20 µM |
| CCCOC1=CC(=O)C(C=NNC(=S)Nc2ccccc2[N+](=O)[O-])C=C1 (stereo not drawn) [1-(2-nitrophenyl)-3-[[(E)-(6-oxo-4-propoxy-1-cyclohexa-2,4-dienylidene)methyl]amino]thiourea] | 0.88 µM |
| Cc1cc(Br)ccc1SCC(=O)OCC(=O)C(C#N)c1nc2ccccc2[nH]1 (stereo not drawn) [2-[(4-bromo-2-methylphenyl)thio]acetic acid [3-cyano-3-(1,3-dihydrobenzimidazol-2-ylidene)-2-oxopropyl] ester] | > 20 µM |
| Cc1ccc(O)c(/N=C/C2=CC(Cc3ccccc3)C=C([N+](=O)[O-])C2=O)c1 (stereo not drawn) [(6E)-6-[[(5-methyl-2-oxidanyl-phenyl)amino]methylidene]-2-nitro-4-(phenylmethyl)cyclohexa-2,4-dien-1-one] | > 20 µM |
| Cc1ccc(C)c(SCC(=O)OCC(=O)C(C#N)c2nc3ccccc3[nH]2)c1 (stereo not drawn) [MLS000392255] | > 20 µM |
| N#CC(C(=O)COC(=O)CSc1ccc(Cl)cc1)c1nc2ccccc2[nH]1 (stereo not drawn) [MLS-0208254.0001] | > 20 µM |
| CCOC1=CC=CC(C=NNC(=S)Nc2ccccc2[N+](=O)[O-])C1=O (stereo not drawn) [MLS-0270696.0001] | 0.414 µM |
| N#CC(C(=O)COC(=O)CSc1ccc2ccccc2c1)c1nc2ccccc2[nH]1 (stereo not drawn) [[3-cyano-3-(1,3-dihydrobenzimidazol-2-ylidene)-2-oxopropyl] 2-naphthalen-2-ylsulfanylacetate] | > 20 µM |
